Structures can show the parent of a compound that is named as a salt.
Molecular target: T1, mGluR5 receptor (Sus scrofa, UniProt I3LUI7)
T1 construct: from tissue; host or cells: pig brain halves without medulla, cerebellum and pons
Assay: [3H]-MPEP binding in the mGluR5 receptor binding assay (pig brain homogenate)
Conditions: 10 μM; pig brain homogenate; 5 nM [3H]-MPEP
Method: I. Method the Determination of the Inhibition of the [^3H]-MPEP Binding in the mGluR5 Receptor Binding Assay
Pig brain homogenate is prepared by homogenization (Polytron PT 3000, Kinematica AG, 10,000 revolutions per minute 90 seconds) of pig brain halves without medulla, cerebellum and pons in a buffer solution having a pH of 8.0 (30 mM of hepes, Sigma, order no. H3375+1 tablet of Complete to 100 ml, Roche Diagnostics, order no. 1836145) in a ratio of 1:20 (brain weight/volume) and differential centrifugation at 900×g and 40,000×g. In each case 450 μg of protein from brain homogenate are incubated with 5 nM [^3H]-MPEP (Tocris, order no. R1212) (MPEP=2-methyl-6-(3-methoxyphenyl)ethynylpyridine) and the compounds to be investigated (10 μM in the test) in a buffer solution (as above) in 250 μl incubation batches in 96-well microtiter plates at room temperature 60 min.
Thereafter, the batches are filtered with the aid of a Brandel cell harvester (Brandel, Robotic 9600 model) onto Unifilter plates with glass fiber filter mats (Perkin Elmer, order no. 6005177) and then rinsed with buffer solution (as above) 3 times with 250 μl per sample each time. The filter plates are then dried 60 min at 55° C. 30 μl Ultima Gold™ scintillator (Packard BioScience, order no. 6013159) are subsequently added per well and, after 3 hours, the samples are measured on a β-counter (Mikrobeta, Perkin Elmer). The non-specific binding is determined by addition of 10 μM of MPEP (Tocris, order no. 1212).

T1 sequence (I3LUI7 19-1212): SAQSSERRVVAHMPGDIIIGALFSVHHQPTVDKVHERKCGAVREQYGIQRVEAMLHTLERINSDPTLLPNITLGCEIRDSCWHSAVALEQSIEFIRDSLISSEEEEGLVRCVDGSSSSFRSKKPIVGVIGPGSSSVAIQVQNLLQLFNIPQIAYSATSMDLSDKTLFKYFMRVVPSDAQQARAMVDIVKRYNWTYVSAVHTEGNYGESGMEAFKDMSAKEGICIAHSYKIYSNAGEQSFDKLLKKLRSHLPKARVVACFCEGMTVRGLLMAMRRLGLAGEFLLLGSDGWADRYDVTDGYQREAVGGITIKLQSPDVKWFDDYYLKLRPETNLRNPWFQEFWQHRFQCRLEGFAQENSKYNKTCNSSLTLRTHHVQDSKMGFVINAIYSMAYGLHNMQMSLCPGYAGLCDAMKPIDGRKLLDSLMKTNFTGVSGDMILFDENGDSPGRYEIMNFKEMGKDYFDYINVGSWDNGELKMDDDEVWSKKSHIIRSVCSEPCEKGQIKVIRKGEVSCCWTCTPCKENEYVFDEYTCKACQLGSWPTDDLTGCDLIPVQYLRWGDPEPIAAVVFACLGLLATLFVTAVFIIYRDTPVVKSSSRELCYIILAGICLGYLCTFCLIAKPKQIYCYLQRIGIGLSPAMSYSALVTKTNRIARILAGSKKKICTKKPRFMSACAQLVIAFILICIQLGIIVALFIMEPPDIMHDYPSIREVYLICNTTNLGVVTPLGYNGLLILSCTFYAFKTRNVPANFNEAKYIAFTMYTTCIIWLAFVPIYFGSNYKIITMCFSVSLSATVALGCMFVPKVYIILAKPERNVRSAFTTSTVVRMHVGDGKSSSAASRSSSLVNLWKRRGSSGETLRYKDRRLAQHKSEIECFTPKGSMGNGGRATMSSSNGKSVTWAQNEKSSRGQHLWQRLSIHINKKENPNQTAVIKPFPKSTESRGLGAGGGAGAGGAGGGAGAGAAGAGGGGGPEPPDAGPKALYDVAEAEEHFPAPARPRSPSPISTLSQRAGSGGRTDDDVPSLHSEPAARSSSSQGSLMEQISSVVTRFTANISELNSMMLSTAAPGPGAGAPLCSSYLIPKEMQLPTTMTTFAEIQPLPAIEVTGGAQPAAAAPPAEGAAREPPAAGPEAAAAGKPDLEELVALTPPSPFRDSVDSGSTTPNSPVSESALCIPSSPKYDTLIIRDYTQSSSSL

First: O=C(C#Cc1cccc(F)c1)N1CCN(c2nc(-c3ccccc3)ns2)CC1 [CCC4, 4-(3-Phenyl-1,2,4-thiadiazol-5-yl)-1-(3-(3-fluorophenyl)propiolyl)piperazine]
Second: Cc1ccccc1C#CC(=O)N1CCN(c2nc(-c3ccc(F)cc3)ns2)CC1 [CCC8, 4-(3-(4-Fluorophenyl)-1,2,4-thiadiazol-5-yl)-1-(3-(tol-2-yl)propiolyl)piperazine]
The “mGluR5-receptor (% inhibition 10 μM) in pigs” value of the first is higher: 59% for the first, 25% for the second.

Compared with O=C(C#Cc1ccc(F)cc1)N1CCN(c2nccs2)CC1 [Example AAA61, 4-(Thiazol-2-yl)-1-(3-(4-fluorophenyl)propiolyl)piperazine], O=C(C#Cc1ccc(O)cc1)N1CCN(c2nccs2)CC1 [Example AAA5, 4-(Thiazol-2-yl)-1-(3-(4-hydroxyphenyl)propiolyl)piperazine] is lower in “mGluR5-receptor (% inhibition 10 μM) in pigs” value: 76% for the first, 35% for the second.

Going from Cc1cnc(N2CCN(C(=O)C#Cc3ccccc3)CC2)s1 [Example AAA88, 4-(5-Methylthiazol-2-yl)-1-(3-phenylpropiolyl)piperazine] to O=C(C#Cc1ccccc1)N1CCN(c2ncc(Cl)s2)CC1 [Example AAA95, 4-(5-Chlorothiazol-2-yl)-1-(3-phenylpropiolyl)piperazine], the “mGluR5-receptor (% inhibition 10 μM) in pigs” value falls from 94% to 58%.

C[C@@H]1CN(c2nccs2)CCN1C(=O)C#Cc1ccccc1 [Example AAA65, (R)-2-Methyl-4-(thiazol-2-yl)-1-(3-phenylpropiolyl)piperazine] and CC1CN(c2nccs2)CCN1C(=O)C#Cc1ccccc1.Cl (centres unmarked) [Example AAA66, 2-Methyl-4-(thiazol-2-yl)-1-(3-phenylpropiolyl)piperazine hydrochloride] are the same in “mGluR5-receptor (% inhibition 10 μM) in pigs” value: 93% for the first, 93% for the second.

Compared with Cc1ccccc1C#CC(=O)N1CCN(c2nccs2)CC1.Cl [Example AAA53, 4-(Thiazol-2-yl)-1-(3-(2-tolyl)propiolyl)piperazine hydrochloride], Cc1cccc(C#CC(=O)N2CCN(c3nccs3)CC2)c1F [Example AAA00111, 4-(Thiazol-2-yl)-1-(3-(2-fluoro-3-methylphenyl)propiolyl)piperazine] is lower in “mGluR5-receptor (% inhibition 10 μM) in pigs” value: 33% for the first, 31% for the second.

Going from CN(C)C(=O)C#CC(=O)N1CCN(c2nccs2)CC1 [Example AAA00114, 4-(Thiazol-2-yl)-1-(dimethylcarbamoylpropiolyl)piperazine] to COC(=O)c1cccc(C#CC(=O)N2CCN(c3nccs3)CC2)c1 [Example AAA49, 4-(Thiazol-2-yl)-1-(3-(3-carboxyphenyl)propiolyl)piperazine methyl ester], the “mGluR5-receptor (% inhibition 10 μM) in pigs” value rises from 14% to 43%.

First: Cc1ccc(C#CC(=O)N2CCN(c3nccs3)CC2)cc1.Cl [Example AAA55, 4-(Thiazol-2-yl)-1-(3-(4-tolyl)propiolyl)piperazine hydrochloride]
Second: O=C(C#Cc1ccncc1)N1CCN(c2nccs2)CC1 [Example AAA34, 4-(Thiazol-2-yl)-1-(3-pyrid-4-ylpropiolyl)piperazine]
The “mGluR5-receptor (% inhibition 10 μM) in pigs” value of the first is lower: 41% for the first, 71% for the second.

Compared with Cc1cccc(C#CC(=O)N2CCN(c3nccs3)CC2C)c1.Cl (centres unmarked) [Example AAA67, 2-Methyl-4-(thiazol-2-yl)-1-(3-(3-tolyl)propiolyl)piperazine hydrochloride], CSc1cccc(C#CC(=O)N2CCN(c3nccs3)CC2)c1 [Example AAA40, 4-(Thiazol-2-yl)-1-(3-(3-methylmercaptophenyl)propiolyl)piperazine] is lower in “mGluR5-receptor (% inhibition 10 μM) in pigs” value: 94% for the first, 80% for the second.

Going from O=C(C#Cc1ccccc1)N1CCN(c2nc(Cc3ccc(F)cc3)ns2)CC1 [Example AAA85, 4-(3-(4-Fluorobenzyl)-1,2,4-thiadiazol-5-yl)-1-(3-phenylpropiolyl)piperazine] to COc1nsc(N2CCN(C(=O)C#Cc3ccccc3)CC2)n1 [Example AAA00102, 4-(3-Methoxy-1,2,4-thiadiazol-5-yl)-1-(3-phenylpropiolyl)piperazine], the “mGluR5-receptor (% inhibition 10 μM) in pigs” value falls from 93% to 61%.

First: Cl.O=C(C#Cc1ccccc1C(F)(F)F)N1CCN(c2nccs2)CC1 [Example AAA57, 4-(Thiazol-2-yl)-1-(3-(2-trifluoromethylphenyl)propiolyl)piperazine hydrochloride]
Second: N#Cc1ccccc1C#CC(=O)N1CCN(c2nccs2)CC1 [Example AAA15, 4-(Thiazol-2-yl)-1-(3-(2-cyanophenyl)propiolyl)piperazine]
The “mGluR5-receptor (% inhibition 10 μM) in pigs” value of the first is higher: 81% for the first, 54% for the second.

First: O=Cc1cccc(C#CC(=O)N2CCN(c3nccs3)CC2)c1 [Example AAA30, 4-(Thiazol-2-yl)-1-(3-(3-formylphenyl)propiolyl)piperazine]
Second: O=C(C#Cc1cccc(O)c1)N1CCN(c2nccs2)CC1 [Example AAA43, 4-(Thiazol-2-yl)-1-(3-(3-hydroxyphenyl)propiolyl)piperazine]
The “mGluR5-receptor (% inhibition 10 μM) in pigs” value of the first is higher: 91% for the first, 83% for the second.

First: O=C(C#Cc1ccc2ccccc2c1)N1CCN(c2nccs2)CC1 [Example AAA38, 4-(Thiazol-2-yl)-1-(3-naphth-2-ylpropiolyl)piperazine]
Second: O=C(C#Cc1cccc(-c2ccccc2)c1)N1CCN(c2nccs2)CC1 [Example AAA37, 4-(Thiazol-2-yl)-1-(3-biphenyl-3-ylpropiolyl)piperazine]
The “mGluR5-receptor (% inhibition 10 μM) in pigs” value of the first is higher: 82% for the first, 45% for the second.

Compared with O=C(C#Cc1ccccc1)N1CCN(c2ncns2)CC1 [Example AAA00103, 4-(1,2,4-Thiadiazol-5-yl)-1-(3-phenylpropiolyl)piperazine], Cc1csc(N2CCN(C(=O)C#Cc3ccccc3)CC2)n1 [Example AAA92, 4-(4-Methylthiazol-2-yl)-1-(3-phenylpropiolyl)piperazine] is higher in “mGluR5-receptor (% inhibition 10 μM) in pigs” value: 83% for the first, 87% for the second.

Compared with Cn1ccc2cc(C#CC(=O)N3CCN(c4nccs4)CC3)ccc21 [Example AAA39, 4-(Thiazol-2-yl)-1-(3-(1-methyl-indol-5-yl)propiolyl)piperazine], O=C(C#Cc1cccc(F)c1)N1CCN(c2nccs2)CC1 [Example AAA22, 4-(Thiazol-2-yl)-1-(3-(3-fluorophenyl)propiolyl)piperazine] is higher in “mGluR5-receptor (% inhibition 10 μM) in pigs” value: 74% for the first, 86% for the second.

First: O=C(C#Cc1ccccc1)N1CCN(c2nc(C(F)(F)F)cs2)CC1 [Example AAA93, 4-(4-Trifluoromethylthiazol-2-yl)-1-(3-phenylpropiolyl)piperazine]
Second: Nc1cccc(C#CC(=O)N2CCN(c3nccs3)CC2)c1 [Example AAA7, 4-(Thiazol-2-yl)-1-(3-(3-aminophenyl)propiolyl)piperazine]
The “mGluR5-receptor (% inhibition 10 μM) in pigs” value of the first is lower: 52% for the first, 91% for the second.

First: COc1ccc(Br)c(C#CC(=O)N2CCN(c3nccs3)CC2)c1 [CCC23, 4-(Thiazol-2-yl)-1-(3-(2-bromo-5-methoxyphenyl)propiolyl)piperazine]
Second: O=C(C#Cc1cccc([N+](=O)[O-])c1)N1CCN(c2nccs2)CC1 [Example AAA28, 4-(Thiazol-2-yl)-1-(3-(3-nitrophenyl)propiolyl)piperazine]
The “mGluR5-receptor (% inhibition 10 μM) in pigs” value of the first is lower: 30% for the first, 82% for the second.

Same assay, conditions: Table II; unit inferred

First: O=C(C#Cc1cccc(C(F)(F)F)c1)N1CCN(c2nccs2)CC1 [Example AAA58, 4-(Thiazol-2-yl)-1-(3-(3-trifluoromethylphenyl)propiolyl)piperazine hydrochloride]
Second: O=C(C#Cc1cccc(C(F)F)c1)N1CCN(c2nccs2)CC1 [Example AAA00122, 4-(Thiazol-2-yl)-1-(3-(3-difluoromethylphenyl)propiolyl)piperazine]
The IC50 of the first is 3.9-fold higher: 240 nM for the first, 62 nM for the second.

First: CC1CN(c2nccs2)CCN1C(=O)C#Cc1cccc(C#N)c1 (centres unmarked) [AAA00123, 2-Methyl-4-(thiazol-2-yl)-1-(3-(3-cyanophenyl)propiolyl)piperazine]
Second: CCC1CN(c2nccs2)CCN1C(=O)C#Cc1ccccc1 (centres unmarked) [Example AAA71, 2-Ethyl-4-(thiazol-2-yl)-1-(3-phenylpropiolyl)piperazine]
The IC50 of the first is 2-fold lower: 19 nM for the first, 38 nM for the second. The first is the more potent here.

Compared with CCc1cccc(C#CC(=O)N2CCN(c3nccs3)CC2)c1 [Example AAA00120, 4-(Thiazol-2-yl)-1-(3-(3-ethylphenyl)propiolyl)piperazine], CNc1cccc(C#CC(=O)N2CCN(c3nccs3)CC2)c1 [Example AAA00112, 4-(Thiazol-2-yl)-1-(3-(3-methylaminophenyl)propiolyl)piperazine] is 2.2-fold higher in IC50: 260 nM for the first, 560 nM for the second.

O=C(C#Cc1ccc2[nH]ccc2c1)N1CCN(c2nccs2)CC1 [Example AAA9, 4-(Thiazol-2-yl)-1-(3-(indol-5-yl)propiolyl)piperazine] and O=C(C#Cc1cccs1)N1CCN(c2nccs2)CC1 [Example AAA10, 4-(Thiazol-2-yl)-1-(3-(2-thienyl)propiolyl)piperazine] are within 1.5-fold of each other in IC50: 700 nM for the first, 980 nM for the second.

CCOC(=O)c1cnc(N2CCN(C(=O)C#Cc3ccccc3)CC2)s1 [Example AAA76, 4-(5-Carboxy-thiazol-2-yl)-1-(3-phenylpropiolyl)piperazine ethyl ester] showed an IC50 of 170 nM.

Reference: patent US7300939B2, “Substituted 1-propiolylpiperazine compounds, their preparation and use” (Gruenenthal GmbH, priority 2005, dated 2007)
